In publication PMC9405102, “Targeted Modification and Structure-Activity Study of GL-29, an Analogue of the Antimicrobial Peptide Palustrin-2ISb” (Antibiotics, 2022):
Values after ≈ are worked out from the molar mass of the structure shown. Like-named read-outs stand apart in the source and are kept apart here. Where a SMILES comes first, the peptide text is derived from it. Where no end group is shown, it is not given here.

Key:
[1] = test system: E. faecalis (NCTC 12697); format: cell-based, Enterococcus faecalis
Description: (§1) The antimicrobial activity of the peptides was determined through the minimum inhibitory concentrations (MICs) and the minimum bactericidal concentration (MBCs) using the broth-dilution method in a 96-well plate, as described in the previous study. Six bacteria, including the Gram-positive bacteria, S. aureus (ATCC CRM 6538), MRSA (ATCC CRM 12493) and E. faecalis (NCTC 12697), the Gram-negative bacteria, E. coli (ATCC CRM 8739), K. pneumoniae (ATCC CRM 43816) and P. aeruginosa (ATCC CRM 9027), the yeast, C. albicans (ATCC CRM 10231) and clinical isolates, S. aureus (B042 V2E1 A), MRSA (B038 V1S1 A), E. coli (ATCC BAA-2340) and K. pneumoniae (ATCC BAA-1705) were used in these assays to evaluate the antimicrobial potency of the two peptides by determining their MICs and MBCs. All bacteria were cultured in MHB and the yeast, C. albicans was cultured in YPD broth overnight. Then, the microorganisms were sub-cultured and diluted to the final concentration of 2 × 10^5 CFU/mL to 5 × 10^5 CFU/mL. The Norfloxacin and amphotericin B were used as positive controls for the bacteria and yeast, respectively. The assay was repeated three times, with five replicates at each time.

[2] = test system: P. aeruginosa (ATCC CRM 9027); format: cell-based, Pseudomonas aeruginosa
Description: as §1

[3] = test system: C. albicans (ATCC CRM 10231); format: cell-based, Candida albicans
Description: as §1

[4] = test system: S. aureus (ATCC CRM 6538); format: cell-based, Staphylococcus aureus
Description: as §1

[5] = test system: S. aureus (B042 V2E1 A); format: cell-based, Staphylococcus aureus
Description: as §1

[6] = test system: MRSA (ATCC CRM 12493); format: cell-based, methicillin-resistant S. aureus
Description: as §1

[7] = test system: MRSA (B038 V1S1 A); format: cell-based, methicillin-resistant S. aureus
Description: as §1

[8] = test system: E. coli (ATCC BAA-2340); format: cell-based, Escherichia coli
Description: as §1

[9] = test system: E. coli (ATCC CRM 8739); format: cell-based, Escherichia coli
Description: as §1

[10] = test system: K. pneumoniae (ATCC BAA-1705); format: cell-based, Klebsiella pneumoniae
Description: as §1

[11] = test system: K. pneumoniae (ATCC CRM 43816); format: cell-based, Klebsiella pneumoniae
Description: as §1

[12] = test system: S. aureus (ATCC CRM 6538); format: cell-based, Staphylococcus aureus; remark: listed apart in the source
Description: (§2) The MBIC and MBEC assays were performed to measure the inhibition and eradication of bacterial biofilm in the presence of different concentrations of peptides. Gram-positive bacteria were inoculated in Luria–Bertani (LB) broth at 37 °C overnight whereas Gram-negative bacteria were inoculated in tryptic soy broth (TSB), and then sub-cultured until reaching the logarithmic growth phase by measuring the OD values at a wavelength of 550nm. For the MBIC assay, 99 µL of diluted bacterial suspension (5 × 10^5 CFU/mL) was mixed with 1 µL of prepared peptide solutions in the wells of a round-bottomed 96-well plate, achieving the final concentrations from 512 to 1 µM, and then incubated at 37 °C for 24 h in a shaking incubator at 200 revolutions per minute (rpm). After this, the plate was washed twice by PBS and fixed with methanol for 30 min. For MBEC assay, 100 µL of diluted bacterial suspension (5 × 10^5 CFU/mL) was seeded into a round-bottomed 96-well plate and incubated at 37 °C for 24 h in a shaking incubator at 200 rpm to obtain mature biofilm. After this, plates were washed twice by PBS and incubated with different concentrations of peptide solution from 512 to 1 µM at 37 °C for 24 h. Afterwards, the plate was washed twice with PBS and fixed with methanol for 30 min. Then, both MBIC and MBEC plates were stained by 130 μL of 0.1% (g/v) crystal violet solutions for 30 min and washed with PBS until no apparent staining was observed. Evaporating crystal violet stains were dissolved by 33% (v/v) acetic acid, and the absorbance values were measured by a Synergy HT Microplate Reader (BioTek, Minneapolis, MN, USA) set to 595 nm. The minimum concentration that inhibited the formation of biofilm was defined when compared to the negative control group, as the MBIC. The minimum concentration that eradicated the biofilm was defined, when compared to the negative control group, as the MBEC. The biofilm assays were performed in triplicate.

[13] = test system: E. faecalis (NCTC 12697); format: cell-based, Enterococcus faecalis; remark: listed apart in the source
Description: as §2

[14] = test system: MRSA (ATCC CRM 12493); format: cell-based, methicillin-resistant S. aureus; remark: listed apart in the source
Description: as §2

[15] = test system: E. coli (ATCC CRM 8739); format: cell-based, Escherichia coli; remark: listed apart in the source
Description: as §2

[16] = test system: K. pneumoniae (ATCC CRM 43816); format: cell-based, Klebsiella pneumoniae; remark: listed apart in the source
Description: as §2

[17] = clinical isolated strain S. aureus (B042 V2E1 A)
[18] = clinical isolated strain MRSA (B038 V1S1 A)
[19] = KPC-producing resistant strain E. coli (ATCC BAA-2340)
[20] = KPC-producing resistant strain K. pneumoniae (ATCC BAA-1705)

CC[C@H](C)[C@H](NC(=O)[C@H](CCCCN)NC(=O)[C@@H](NC(=O)[C@H](CO)NC(=O)[C@H](CC(N)=O)NC(=O)[C@H](Cc1c[nH]c2ccccc12)NC(=O)[C@H](CC(C)C)NC(=O)CN)[C@@H](C)CC)C(=O)N[C@@H](C)C(=O)NCC(=O)N[C@@H](CCCCN)C(=O)N[C@@H](CCCCN)C(=O)N[C@@H](CC(C)C)C(=O)N[C@@H](Cc1ccccc1)C(=O)N[C@H](C(=O)N[C@@H](CC(N)=O)C(=O)N[C@H](C(=O)N[C@@H](CC(C)C)C(=O)N[C@@H](CC(=O)O)C(=O)N[C@@H](CCCCN)C(=O)N[C@H](C(=O)N[C@@H](CCCNC(=N)N)C(=O)N[C@H]1CSSC[C@@H](C(=O)O)NC(=O)CNC(=O)CNC(=O)[C@H](C)NC(=O)[C@H](C(C)C)NC(=O)[C@H](CCCCN)NC1=O)[C@@H](C)CC)C(C)C)C(C)C [GL-29] (HELM PEPTIDE1{G.L.W.N.S.I.K.I.A.G.K.K.L.F.V.N.V.L.D.K.I.R.C.K.V.A.G.G.C}$PEPTIDE1,PEPTIDE1,23:R3-29:R3$$$V2.0; N-terminus and C-terminus assumed; bridges inferred)
MBC ([1]; NCTC 12697): 32 µM (≈ 100 µg/mL)
MIC ([1]; NCTC 12697): 16 µM (≈ 50.1 µg/mL)
MBC ([2]; ATCC CRM 9027): 16 µM (≈ 50.1 µg/mL)
MIC ([2]; ATCC CRM 9027): 16 µM (≈ 50.1 µg/mL)
MBC ([3]; ATCC CRM 10231): 256 µM (≈ 801 µg/mL)
MIC ([3]; ATCC CRM 10231): 128 µM (≈ 401 µg/mL)
MBC ([4]; ATCC CRM 6538): 4 µM (≈ 12.5 µg/mL)
MIC ([4]; ATCC CRM 6538): 4 µM (≈ 12.5 µg/mL)
MBC ([5]; B042 V2E1 A): 4 µM (≈ 12.5 µg/mL)
MIC ([5]; B042 V2E1 A): 4 µM (≈ 12.5 µg/mL)
MBC ([6]; ATCC CRM 12493): 8 µM (≈ 25 µg/mL)
MIC ([6]; ATCC CRM 12493): 8 µM (≈ 25 µg/mL)
MBC ([7]; B038 V1S1 A): 2 µM (≈ 6.26 µg/mL)
MIC ([7]; B038 V1S1 A): 2 µM (≈ 6.26 µg/mL)
MBC ([8]; ATCC BAA-2340): 4 µM (≈ 12.5 µg/mL)
MIC ([8]; ATCC BAA-2340): 2 µM (≈ 6.26 µg/mL)
MBC ([9]; ATCC CRM 8739): 4 µM (≈ 12.5 µg/mL)
MIC ([9]; ATCC CRM 8739): 2 µM (≈ 6.26 µg/mL)
MBC ([10]; ATCC BAA-1705): 4 µM (≈ 12.5 µg/mL)
MIC ([10]; ATCC BAA-1705): 4 µM (≈ 12.5 µg/mL)
MBC ([11]; ATCC CRM 43816): 8 µM (≈ 25 µg/mL)
MIC ([11]; ATCC CRM 43816): 8 µM (≈ 25 µg/mL)
MBEC ([12]; ATCC CRM 6538, 24 h): 128 µM
MBIC ([12]; ATCC CRM 6538, 24 h): 4 µM
MBEC ([13]; NCTC 12697, 24 h): > 512 µM
MBIC ([13]; NCTC 12697, 24 h): 16 µM
MBEC ([14]; ATCC CRM 12493, 24 h): 256 µM
MBIC ([14]; ATCC CRM 12493, 24 h): 8 µM
MBEC ([15]; ATCC CRM 8739, 24 h): 128 µM
MBIC ([15]; ATCC CRM 8739, 24 h): 4 µM
MBEC ([16]; ATCC CRM 43816, 24 h): > 512 µM
MBIC ([16]; ATCC CRM 43816, 24 h): 16 µM

GLWNSIKIAGKKLFVNVLDKIR-NH2 [GL-22]
MBC ([1]; NCTC 12697): 32 µM
MIC ([1]; NCTC 12697): 32 µM
MBC ([2]; ATCC CRM 9027): 32 µM
MIC ([2]; ATCC CRM 9027): 32 µM
MBC ([3]; ATCC CRM 10231): 256 µM
MIC ([3]; ATCC CRM 10231): 128 µM
MBC ([4]; ATCC CRM 6538): 4 µM
MIC ([4]; ATCC CRM 6538): 4 µM
MBC ([5]; B042 V2E1 A): 64 µM
MIC ([5]; B042 V2E1 A): 32 µM
MBC ([6]; ATCC CRM 12493): 8 µM
MIC ([6]; ATCC CRM 12493): 8 µM
MBC ([7]; B038 V1S1 A): 4 µM
MIC ([7]; B038 V1S1 A): 4 µM
MBC ([8]; ATCC BAA-2340): 4 µM
MIC ([8]; ATCC BAA-2340): 2 µM
MBC ([9]; ATCC CRM 8739): 4 µM
MIC ([9]; ATCC CRM 8739): 4 µM
MBC ([10]; ATCC BAA-1705): 4 µM
MIC ([10]; ATCC BAA-1705): 4 µM
MBC ([11]; ATCC CRM 43816): 4 µM
MIC ([11]; ATCC CRM 43816): 4 µM
MBEC ([12]; ATCC CRM 6538, 24 h): > 512 µM
MBIC ([12]; ATCC CRM 6538, 24 h): 8 µM
MBEC ([13]; NCTC 12697, 24 h): > 512 µM
MBIC ([13]; NCTC 12697, 24 h): 32 µM
MBEC ([14]; ATCC CRM 12493, 24 h): > 512 µM
MBIC ([14]; ATCC CRM 12493, 24 h): 8 µM
MBEC ([15]; ATCC CRM 8739, 24 h): > 512 µM
MBIC ([15]; ATCC CRM 8739, 24 h): 16 µM
MBEC ([16]; ATCC CRM 43816, 24 h): > 512 µM
MBIC ([16]; ATCC CRM 43816, 24 h): 16 µM

GLWNSIKIA-NH2 [GL-9, GLWNSIKIA-NH2]
MBC ([1]; E. faecalis (NCTC 12697)): >512 µM
MIC ([1]; E. faecalis (NCTC 12697)): >512 µM
MBC ([2]; P. aeruginosa (ATCC CRM 9027)): >512 µM
MIC ([2]; P. aeruginosa (ATCC CRM 9027)): >512 µM
MBC ([3]; C. albicans (ATCC CRM 10231)): >512 µM
MIC ([3]; C. albicans (ATCC CRM 10231)): >512 µM
MBC ([4]; S. aureus (ATCC CRM 6538)): 512 µM
MIC ([4]; S. aureus (ATCC CRM 6538)): 512 µM
MBC [5, 17]: >512 µM
MIC [5, 17]: >512 µM
MBC ([6]; MRSA (ATCC CRM 12493)): >512 µM
MIC ([6]; MRSA (ATCC CRM 12493)): >512 µM
MBC [7, 18]: >512 µM
MIC [7, 18]: >512 µM
MBC [8, 19]: >512 µM
MIC [8, 19]: >512 µM
MBC ([9]; E. coli (ATCC CRM 8739)): > 512 µM
MIC ([9]; E. coli (ATCC CRM 8739)): 512 µM
MBC [10, 20]: >512 µM
MIC [10, 20]: >512 µM
MBC ([11]; K. pneumoniae (ATCC CRM 43816)): >512 µM
MIC ([11]; K. pneumoniae (ATCC CRM 43816)): >512 µM
MBEC ([12]; biofilm eradication, S. aureus (ATCC CRM 6538)): >512 µM
MBIC ([12]; biofilm formation, S. aureus (ATCC CRM 6538)): >512 µM
MBEC ([13]; biofilm eradication, E. faecalis (NCTC 12697)): >512 µM
MBIC ([13]; biofilm formation, E. faecalis (NCTC 12697)): >512 µM
MBEC ([14]; biofilm eradication, MRSA (ATCC CRM 12493)): >512 µM
MBIC ([14]; biofilm formation, MRSA (ATCC CRM 12493)): >512 µM
MBEC ([15]; biofilm eradication, E. coli (ATCC CRM 8739)): 512/>512 μM
MBIC ([15]; biofilm formation, E. coli (ATCC CRM 8739)): 512/>512 μM
MBEC ([16]; biofilm eradication, K. pneumoniae (ATCC CRM 43816)): >512 µM
MBIC ([16]; biofilm formation, K. pneumoniae (ATCC CRM 43816)): >512 µM
